The record followed here is ChEMBL document CHEMBL1201862, “PubChem BioAssay data set” (2004).

For test [1], the target named is T1, Sentrin-specific protease 8 (Homo sapiens, UniProt Q96LD8).
T1 sequence (Q96LD8 whole entry): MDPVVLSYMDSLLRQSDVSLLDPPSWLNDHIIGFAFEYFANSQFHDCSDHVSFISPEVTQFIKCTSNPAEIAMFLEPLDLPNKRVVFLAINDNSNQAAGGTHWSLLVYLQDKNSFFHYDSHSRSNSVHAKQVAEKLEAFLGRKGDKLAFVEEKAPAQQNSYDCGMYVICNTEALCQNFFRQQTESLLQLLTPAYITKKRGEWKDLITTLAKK
Format: functional.

A short description of test [2]: inhibitors of SNCA 5'UTR-driven reporter translation, confirmation, H4 neuroglioma cells, luminescence (AID 1988). It counts as functional, cell-based.
The nature of test [3]: Luminescence Cell-Based Dose Confirmation HTS to Identify Inhibitors of Platelet Dense Granule Release. [Related pubchem assays: 1663 (Primary HTS), 1678 (Summary of Project)]. It counts as functional.
Test [4] can be described thus: Luminescence Cell-Based Dose Response HTS to Identify Inhibitors of 5'UTR Stem-Loop Driven Prion Protein mRNA Translation in H4 Neuroglioblastoma Cells. [Related pubchem assays: 1827 (Project Summary), 1813 (Primary HTS)]. It counts as functional.
The target in another test is Beta-galactosidase (Escherichia coli, UniProt Q8VNN2). Briefly: PubChem AID 485352. It counts as functional.
Sequence of Beta-galactosidase (Q8VNN2 whole entry): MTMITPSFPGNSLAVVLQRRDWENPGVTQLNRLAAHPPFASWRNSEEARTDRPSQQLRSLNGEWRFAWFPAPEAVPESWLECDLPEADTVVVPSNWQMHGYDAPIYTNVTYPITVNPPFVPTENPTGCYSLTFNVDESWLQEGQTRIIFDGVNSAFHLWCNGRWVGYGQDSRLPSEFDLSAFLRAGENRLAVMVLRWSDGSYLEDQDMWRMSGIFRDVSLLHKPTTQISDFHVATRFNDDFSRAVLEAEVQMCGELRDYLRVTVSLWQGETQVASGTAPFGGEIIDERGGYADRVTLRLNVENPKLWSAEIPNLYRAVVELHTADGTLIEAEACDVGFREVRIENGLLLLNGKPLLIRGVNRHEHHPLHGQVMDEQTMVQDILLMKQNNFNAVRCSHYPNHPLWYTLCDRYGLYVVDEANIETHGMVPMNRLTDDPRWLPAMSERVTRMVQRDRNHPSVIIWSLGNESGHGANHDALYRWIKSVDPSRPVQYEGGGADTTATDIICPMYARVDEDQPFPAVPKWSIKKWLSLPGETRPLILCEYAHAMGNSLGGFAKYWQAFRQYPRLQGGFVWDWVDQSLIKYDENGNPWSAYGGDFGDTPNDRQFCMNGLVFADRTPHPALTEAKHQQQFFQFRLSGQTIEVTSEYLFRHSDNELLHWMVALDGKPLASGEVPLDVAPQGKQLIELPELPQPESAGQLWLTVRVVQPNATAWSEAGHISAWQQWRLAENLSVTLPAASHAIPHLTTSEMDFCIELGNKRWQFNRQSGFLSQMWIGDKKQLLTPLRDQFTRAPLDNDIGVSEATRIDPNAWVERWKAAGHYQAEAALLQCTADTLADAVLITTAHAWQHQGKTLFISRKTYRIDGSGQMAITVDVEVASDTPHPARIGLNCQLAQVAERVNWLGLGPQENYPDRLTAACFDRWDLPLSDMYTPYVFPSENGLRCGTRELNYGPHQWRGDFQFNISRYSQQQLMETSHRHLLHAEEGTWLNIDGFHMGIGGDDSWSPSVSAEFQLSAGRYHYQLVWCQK
The nature of test [5]: Luminescence-based dose response cell-based high throughput screening assay for cytotoxic compounds using the IEC-6 intestinal epithelial cell line. [Related pubchem assays: 1858 (Summary AID.), 1825 (Counterscreen.), 1907 (Confirmation screen.)]. Format: functional. A general note: The purpose of a counterscreen is to sort out artefacts and off-target activity.
Test [6] deals with Kappa-type opioid receptor (Homo sapiens, UniProt P41145). Format: functional.
Sequence of Kappa-type opioid receptor (P41145 whole entry): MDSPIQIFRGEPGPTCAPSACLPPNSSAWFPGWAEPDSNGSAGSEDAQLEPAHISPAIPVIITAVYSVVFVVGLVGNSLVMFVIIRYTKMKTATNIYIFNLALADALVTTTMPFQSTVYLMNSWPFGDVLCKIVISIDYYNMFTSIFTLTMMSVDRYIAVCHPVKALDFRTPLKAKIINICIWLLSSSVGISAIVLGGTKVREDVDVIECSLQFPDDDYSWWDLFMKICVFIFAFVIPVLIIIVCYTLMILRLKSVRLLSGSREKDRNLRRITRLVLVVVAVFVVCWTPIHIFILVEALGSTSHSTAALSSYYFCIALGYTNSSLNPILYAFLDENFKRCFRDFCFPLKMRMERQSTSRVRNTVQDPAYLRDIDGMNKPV
The test system of another test is HeLa. The test can be described thus: Cytotoxicity counterscreen assay for transcriptional activators of heat shock protein 70 (Hsp70). [Related pubchem assays: 1203, 1252 ]. The following applies: Homo sapiens. Format: functional.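 Also: cells exposed to compound for 16 hours before readout.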
The subject of a further test is Vero. The test can be described thus: cells. It counts as functional. The following applies: Chlorocebus sabaeus.
The target of test [7] is Serine/threonine-protein phosphatase PP1-alpha catalytic subunit (Homo sapiens, UniProt P62136). The test can be described thus: PP1 phosphatase inhibitors, dose response, biochemical, fluorescence (AID 2394).
Sequence of Serine/threonine-protein phosphatase PP1-alpha catalytic subunit (P62136 whole entry): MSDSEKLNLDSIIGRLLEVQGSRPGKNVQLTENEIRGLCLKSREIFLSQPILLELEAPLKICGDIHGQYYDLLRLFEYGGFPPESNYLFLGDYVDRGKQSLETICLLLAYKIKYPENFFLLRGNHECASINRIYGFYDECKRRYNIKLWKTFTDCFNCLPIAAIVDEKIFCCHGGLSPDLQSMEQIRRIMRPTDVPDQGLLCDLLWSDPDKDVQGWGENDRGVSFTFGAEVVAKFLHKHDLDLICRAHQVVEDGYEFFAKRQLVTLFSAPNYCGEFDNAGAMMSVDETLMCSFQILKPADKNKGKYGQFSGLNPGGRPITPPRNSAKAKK
Test [8] concerns the target T2, Apoptotic protease-activating factor 1 (Homo sapiens, UniProt O14727).
T2 sequence (O14727 whole entry): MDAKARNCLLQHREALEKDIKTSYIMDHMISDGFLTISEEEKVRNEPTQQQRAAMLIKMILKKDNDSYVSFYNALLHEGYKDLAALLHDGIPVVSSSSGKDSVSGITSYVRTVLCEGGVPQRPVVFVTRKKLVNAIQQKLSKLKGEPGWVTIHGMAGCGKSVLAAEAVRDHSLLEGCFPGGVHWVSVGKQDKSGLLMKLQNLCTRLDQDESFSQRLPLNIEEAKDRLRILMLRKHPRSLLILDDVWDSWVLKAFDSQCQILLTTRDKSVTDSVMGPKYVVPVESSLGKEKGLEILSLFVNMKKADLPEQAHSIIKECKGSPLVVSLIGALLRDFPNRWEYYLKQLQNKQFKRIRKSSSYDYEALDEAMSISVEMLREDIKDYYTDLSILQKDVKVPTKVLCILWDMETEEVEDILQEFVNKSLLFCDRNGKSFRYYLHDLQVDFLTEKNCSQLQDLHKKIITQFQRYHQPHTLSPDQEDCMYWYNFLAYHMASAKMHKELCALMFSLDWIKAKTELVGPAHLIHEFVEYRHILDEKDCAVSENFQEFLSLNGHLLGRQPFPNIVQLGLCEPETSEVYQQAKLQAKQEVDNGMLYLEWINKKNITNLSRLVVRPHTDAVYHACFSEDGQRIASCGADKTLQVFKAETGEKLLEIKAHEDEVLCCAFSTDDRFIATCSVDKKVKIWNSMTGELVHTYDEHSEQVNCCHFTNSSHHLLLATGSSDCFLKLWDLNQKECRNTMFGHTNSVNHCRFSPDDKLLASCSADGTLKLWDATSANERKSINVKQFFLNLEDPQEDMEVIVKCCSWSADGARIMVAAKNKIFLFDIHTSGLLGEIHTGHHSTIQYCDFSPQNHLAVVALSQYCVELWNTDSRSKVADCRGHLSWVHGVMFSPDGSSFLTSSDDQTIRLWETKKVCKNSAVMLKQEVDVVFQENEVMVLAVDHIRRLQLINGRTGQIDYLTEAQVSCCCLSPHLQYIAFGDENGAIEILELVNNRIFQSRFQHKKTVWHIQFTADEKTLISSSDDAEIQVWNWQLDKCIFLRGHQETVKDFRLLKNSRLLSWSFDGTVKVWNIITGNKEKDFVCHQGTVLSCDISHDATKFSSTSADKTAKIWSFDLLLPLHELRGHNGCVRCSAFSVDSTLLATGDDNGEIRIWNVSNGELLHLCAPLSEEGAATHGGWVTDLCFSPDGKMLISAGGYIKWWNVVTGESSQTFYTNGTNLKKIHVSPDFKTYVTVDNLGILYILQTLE
It counts as functional.

Test [9] deals with T3, Mitochondrial peptide methionine sulfoxide reductase (Bos taurus, UniProt P54149).
T3 sequence (P54149 whole entry): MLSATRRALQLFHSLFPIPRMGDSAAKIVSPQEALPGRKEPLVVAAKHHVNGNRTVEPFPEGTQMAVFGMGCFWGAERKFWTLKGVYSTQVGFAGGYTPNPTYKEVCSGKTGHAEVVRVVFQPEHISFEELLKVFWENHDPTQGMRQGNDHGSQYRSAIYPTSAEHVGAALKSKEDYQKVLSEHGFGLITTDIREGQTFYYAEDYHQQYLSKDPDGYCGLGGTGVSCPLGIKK
It counts as functional.

One may read the IC50 as the point on the concentration scale where inhibition reaches its midpoint. For orientation: EC50 means the concentration that produces a half-maximal response. What is called CC50 is the concentration at which the toxic effect on the cells reaches its halfway point.

Calls of active or inactive are those of the source.

For `Nc1ccc(N2CCCCC2)c2nonc12`, in [1], the IC50 was 1.06 µM (active).

Turning to `COc1ccc(NC(=O)/C(Cl)=C(/Cl)[S+]([O-])Cc2ccccc2)cn1` (configuration not stated), the EC50 in [2] is 4.57 µM (active); in [3], 6.34 µM (active); in test [4] it was 0.998 µM (active); on Beta-galactosidase it was > 40 µM (inactive). For the same compound, the 50% inhibitory concentration (IC50) in test [5] was 1.27 µM (active); in test [6], 7.1 µM (active). Moreover, in the test with HeLa, the CC50 is 1.75 µM (active).

For `Cc1ccc(S(=O)(=O)/N=C2\C=C(Nc3cccc(C(=O)O)c3)C(=O)c3ccccc32)c(C)c1`, the CC50 with Vero was > 25 µM (active). Also, the IC50 is 27.1 µM (not active) in test [7], 4.11 µM (active) in test [8] and 74.5 µM (inactive) in test [9].
